# Assay results from paper PMC6270821, “ROS-Mediated Cytotoxic Effect of Copper(II) Hydrazone Complexes against Human Glioma Cells” (Molecules, 2014).
# Columns and labels:
# [1] = system: U87 (p53 wild-type glioblastoma multiforme) cells; assay: MTT cytotoxicity assay, U87 cells; assay type: cell-based, human; settings: for IC50: MTT, 48 h treatment
# Procedure: (§1) The in vitro cytotoxic effects of H2AcMe, H2BzMe and complexes 1 and 2 against wild type p53 U87 and mutant p53 T98 glioblastoma cells and against MRC-5 fibroblasts cells were tested using cisplatin as a positive control. To determine the IC50 (concentration that inhibits 50% of cell survival) values the cytotoxic effects were quantified using the 3-(4,5-dimethyl-2-thioazolyl)-2,5-diphenyl tetrazolium bromide (MTT) colorimetric assay. All tested compounds were cytotoxic against both glioma cell lines in a dose-dependent way. The IC50 values (see Table 1) were found in the micromolar range. Despite their cytotoxic activity, all compounds were less toxic to fibroblasts cells than cisplatin. CuCl2 evoked only mild cytotoxicity in all cell lineages with IC50 higher than 100 µM.
# (§2) U87 (p53 wild-type glioblastoma multiforme) and T98 (p53 mutant glioblastoma multiforme) malignant human tumor cells and MRC5 (Human Fetal Lung Fibroblast) cells were obtained from the American Type Culture Collection (ATCC, Manassas, VA, USA). Cell lines were grown as monolayer in Dulbecco’s Modified Eagle’s Medium (DMEM, Gibco, Rockville, MD, USA), supplemented with 10% fetal bovine serum (Cultilab, Campinas, São Paulo, Brazil) and antibiotics (50 U/mL penicillin/50 […] streptomycin), in a humidified atmosphere air/CO2 (95%/5%) at 37 °C. Cells 80% confluents were used in all experiments. For all experiments, cells were seeded in 96-well plates, at a density of 1000 cells/well. After 24 h incubation cells were treated.
# (§3) To determine the IC50 values the cytotoxic effects were quantified using the 3-(4,5-dimethyl-2-thioazolyl)-2,5-diphenyltetrazolium bromide (MTT) colorimetric assay. Briefly, cells were treated with increasing concentrations (10^−12, 10^−11, 10^−10, 10^−9, 10^−8, 10^−7, 10^−6, 10^−5, 10^−4 mol·L^−1) of either cisplatin (positive control) or test compounds (H2AcMe, H2BzMe, 1 and 2). The compounds were previously dissolved in dimethyl sulfoxide (DMSO) and the final concentrations were adjusted in DMEM in such manner that the final DMSO concentration was lower than 0.5%. Following 48 h treatment, MTT reagent was added to each well. Following another 4 h of incubation at 37 °C, DMSO was added to each well to dissolve formazan precipitate and absorbance was measured at 570 nm. Tests using DMSO (0.5% in DMEM) as negative control were carried out in parallel. All tests were performed in quadruplicates with full agreement between the results. Statistical analysis was carried out by the unpaired, one-tailed Student’s t testing using a p value of 0.05. A value of p < 0.05 was considered significant.
# [2] = system: T98 (p53 mutant glioblastoma multiforme) cells; assay: MTT cytotoxicity assay, T98 cells; assay type: cell-based, human; settings: for IC50: MTT, 48 h treatment; for selectivity index (SI = IC50MRC5/IC50tumor cell), T98: T98 vs MRC5
# Procedure: as §1, §2, §3
# [3] = system: MRC5 (Human Fetal Lung Fibroblast) cells; assay: MTT cytotoxicity assay, MRC5 fibroblasts; assay type: cell-based
# Procedure: as §1, §2, §3
# [4] = system: pUC 19 plasmid DNA; assay: Agarose gel electrophoresis of supercoiled plasmid DNA; parameters: species or system Escherichia coli; settings: 100 µM, Tris-HCl pH 7.20, 37 °C, 24 h
# Procedure: Studies of interactions between the compounds under study and supercoiled plasmid DNA by agarose gel electrophoresis were carried out. Thus, 136 ng of purified plasmid DNA-pUC 19 from Escherichia coli (Sigma-Aldrich Brasil, São Paulo, Brazil) were incubated with compounds 1, 2 and cisplatin at 100 µM in Tris-HCl buffer (NaCl 50 mM, Tris-HCl 5 mM, pH = 7.20). The mixture was incubated at 37 °C for 24 h. Thereafter, the reactions were quenched by adding 5 µL of the loading buffer solution (50 mM Tris, pH 7.20, 0.01% bromophenol blue, 50% glycerol, and 250 mM EDTA). The samples were analyzed by 1% agarose gel electrophoresis in 0.5 × TBE buffer for 1 h 40 min at […]. The gel was stained after electrophoresis in 0.5× TBE buffer with 2.5 µg·mL^−1 ethidium bromide for 15 min and visualized by UV light.
# [5] = system: U87 cells; assay: ROS generation, DCFH-DA assay, U87 cells; assay type: cell-based, human; settings: 1 × 10^−5 mol/L, 24 h
# Source text: (§4) To examine the effects of H2AcMe, H2BzMe and their complexes 1 and 2 on the generation of free radicals (reactive oxygen species, ROS), we used the 2',7'-dichlorodihydrofluorescein diacetate (DCFH-DA) assay.
# (§5) ROS accumulation was detected using dichlorodihydrofluorescein diacetate (DCFH-DA, Sigma). DCFH-DA is a non-fluorescent compound, that when it is taken up by passive diffusion into the cells, is hydrolyzed by esterases to yield non-permeable DCFH. In the presence of ROS, DCFH is oxidized to the fluorescent DCF. Tumor cells were treated with the compounds for 24 h and were then incubated with DCFH-DA (1 × 10^−5 mol·L^−1) for 30 min at 37 °C. Following incubation, the cells were washed twice with PBS. Thereafter, the cells were observed under the fluorescent microscope Zeiss Axionplan coupled with a digital camera at excitation and emission wavelengths of 488 and 525 nm, respectively. Data were analyzed using ImageJ (ImageJ, National Institute of Health, Bethesda, MD, USA) and expressed as percentages of DCFDA fluorescence of the corresponding control.
# [6] = system: MRC5 cells; assay: ROS generation, DCFH-DA assay, MRC5 cells; assay type: cell-based, human; settings: 1 × 10^−5 mol/L, 24 h
# Source text: as §4, §5
# [7] = Homo sapiens, MRC5, 48 h treatment
SMILES,IC50 [1],"selectivity index (SI = IC50MRC5/IC50tumor cell), U87 ([1]; U87 vs MRC5)",IC50 [2],"selectivity index (SI = IC50MRC5/IC50tumor cell), T98 [2]",IC50 ([3]; 48 h treatment),alteration in the electrophoretic mobility of pUC 19 plasmid DNA [4],"IC50 ([1]; Homo sapiens, U-87 MG)","IC50 ([2]; Homo sapiens, T98, 48 h)","IC50 [3, 7]",ROS levels in U87 cells compared with T98 cells [5],ROS levels in MRC5 cells compared with glioma cells [6]
"N.N.[Cl][Pt][Cl] [Cisplatin, [cis(Diaminedichloro)platinum(II)], reference compound]",1.76 ± 0.22 µM,2.87,5.31 ± 1.94 µM,0.95,5.05 ± 0.71 µM,strong modification,,,,,
"CC(=O)NN=C(c1ccccc1)c1ccccn1 [H2BzMe, 2-benzoylpyridine acetylhydrazone]",,,19.7 ± 1.06 µM,good selectivity index,,,52.3 ± 10 µM,19.8 µM,62.3 ± 7.76 µM,equally effective in both cell lineages,the same increasing in ROS levels in MRC5 and in both malignant cells
"CC(=O)NN=C(C)c1ccccn1 [H2AcMe, 2-Acetylpyridine acetylhydrazone]",,,,,,,67.6 ± 4.08 µM,13.8 ± 4.89 µM,19.8 ± 4.15 µM,higher levels of ROS in U87 cells,lower levels of ROS in MRC5 cells
"[Cl][Cu][Cl] [CuCl2, reference compound]",> 100 µM,,> 100 µM,,> 100 µM,no alteration in the electrophoretic mobility,,,,,
